Laboratory results reported in ChEMBL document CHEMBL2311417, “Synthesis and biological evaluation of N-aryl-7-methoxybenzo[b]furo[3,2-d]pyrimidin-4-amines and their N-arylbenzo[b]thieno[3,2-d]pyrimidin-4-amine analogues as dual inhibitors of CLK1 and DYRK1A kinases” (Eur J Med Chem, 2013).

Experiments:
[1] = biological target: Dual specificity tyrosine-phosphorylation-regulated kinase 1A (Rattus norvegicus, UniProt Q63470); assay: Inhibition of rat recombinant DYRK1A-GST expressed in Escherichia coli using KKISGRLSPIMTEQ as substrate
[2] = Inhibition of porcine brain CK1delta/epsilon using RRKHAAIGpSAYSITA as substrate; set-up: species or system Sus scrofa
[3] = biological target: Glycogen synthase kinase-3 (Sus scrofa, UniProt B2LUN4+I6LNT8); assay: Inhibition of porcine brain GSK3alpha/beta using GS-1 as substrate
[4] = biological target: Cyclin-dependent kinase 5/CDK5 activator 1 (Homo sapiens, UniProt Q00535); assay: Inhibition of human recombinant CDK5/p25 after 30 mins by scintillation counting; type: protein-complex assay
[5] = biological target: Dual specificity protein kinase CLK1 (Homo sapiens, UniProt P49759)
Sequence of Dual specificity protein kinase CLK1 (P49759 whole entry): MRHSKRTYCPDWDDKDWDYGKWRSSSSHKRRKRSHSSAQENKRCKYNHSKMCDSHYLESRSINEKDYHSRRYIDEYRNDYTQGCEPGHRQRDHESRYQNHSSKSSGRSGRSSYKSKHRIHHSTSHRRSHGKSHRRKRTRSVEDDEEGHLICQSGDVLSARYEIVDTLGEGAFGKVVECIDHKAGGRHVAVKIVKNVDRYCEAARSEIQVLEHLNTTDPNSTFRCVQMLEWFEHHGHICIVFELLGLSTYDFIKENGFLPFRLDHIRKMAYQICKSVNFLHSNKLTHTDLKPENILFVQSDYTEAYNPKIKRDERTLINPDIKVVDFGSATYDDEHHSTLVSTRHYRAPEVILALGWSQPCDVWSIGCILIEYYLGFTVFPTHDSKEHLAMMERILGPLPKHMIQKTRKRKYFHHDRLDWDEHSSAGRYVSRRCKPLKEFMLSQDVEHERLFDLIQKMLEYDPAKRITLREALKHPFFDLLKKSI

Sequence of Cyclin-dependent kinase 5/CDK5 activator 1 (Q00535 whole entry): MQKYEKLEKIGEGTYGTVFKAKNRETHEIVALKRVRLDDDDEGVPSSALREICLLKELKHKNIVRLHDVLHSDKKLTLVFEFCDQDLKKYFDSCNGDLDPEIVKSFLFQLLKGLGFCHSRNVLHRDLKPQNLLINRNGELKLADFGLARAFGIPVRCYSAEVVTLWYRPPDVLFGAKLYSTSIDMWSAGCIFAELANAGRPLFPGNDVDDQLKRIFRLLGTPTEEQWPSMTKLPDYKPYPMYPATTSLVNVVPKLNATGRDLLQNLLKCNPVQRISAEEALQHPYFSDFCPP
Sequence of Cyclin-dependent kinase 5/CDK5 activator 1 (Q15078 whole entry, further chain): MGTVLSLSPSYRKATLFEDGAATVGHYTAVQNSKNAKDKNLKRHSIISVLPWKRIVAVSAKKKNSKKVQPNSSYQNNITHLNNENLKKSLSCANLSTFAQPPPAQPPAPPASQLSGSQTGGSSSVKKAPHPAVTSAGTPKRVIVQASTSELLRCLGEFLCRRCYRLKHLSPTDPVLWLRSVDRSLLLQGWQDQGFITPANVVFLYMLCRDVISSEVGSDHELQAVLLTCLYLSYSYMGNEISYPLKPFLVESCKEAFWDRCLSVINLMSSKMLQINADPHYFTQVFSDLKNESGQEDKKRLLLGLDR

Row | Compound | IC50 [1] [µM] | IC50 [2] [µM] | IC50 [3] [µM] | IC50 [4] [µM] | IC50 [5] [µM]
1 | COc1ccc2c(c1)sc1c(Nc3ccc(N(C)C)cc3)ncnc12 | 0.66 | > 10 | > 10 | > 10 | 0.79
2 | COc1ccc2c(c1)oc1c(Nc3ccc4c(c3)OCO4)ncnc12 | 2.8 | > 10 | > 10 | > 10 | 2
3 | COc1ccc2c(c1)oc1c(Nc3ccc4c(c3)OCCO4)ncnc12 | > 10 | > 10 | > 10 | > 10 | > 10
4 | COc1ccc2c(c1)oc1c(Nc3ccc(F)cc3)ncnc12 | > 10 | > 10 | > 10 | > 10 | > 10
5 | COc1ccc2c(c1)oc1c(Nc3ccc(Br)cc3)ncnc12 | > 10 | > 10 | > 10 | > 10 | > 10
6 | COc1ccc2c(c1)oc1c(Nc3ccc(Cl)cc3)ncnc12 | > 10 | > 10 | > 10 | > 10 | > 10
7 | COc1ccc2c(c1)oc1c(Nc3cccc(Cl)c3)ncnc12 | > 10 | > 10 | > 10 | > 10 | > 10
8 | COc1ccc2c(c1)oc1c(Nc3ccccc3Cl)ncnc12 | 3.2 | > 10 | > 10 | > 10 | 4.2
9 | COc1ccc2c(c1)oc1c(Nc3ccc(Cl)c(Cl)c3)ncnc12 | > 10 | > 10 | > 10 | > 10 | > 10
10 | COc1ccc2c(c1)oc1c(Nc3cc(Cl)cc(Cl)c3)ncnc12 | > 10 | > 10 | > 10 | > 10 | > 10
11 | COc1ccc2c(c1)oc1c(Nc3ccc(Cl)cc3Cl)ncnc12 | 3.1 | > 10 | > 10 | > 10 | > 10
12 | COc1ccc2c(c1)oc1c(Nc3ccc(F)c(Cl)c3)ncnc12 | > 10 | > 10 | > 10 | > 10 | > 10
13 | COc1ccc2c(c1)oc1c(Nc3ccc(Cl)cc3F)ncnc12 | > 10 | > 10 | > 10 | > 10 | > 10
14 | COc1ccc2c(c1)oc1c(Nc3ccc(F)cc3F)ncnc12 | > 10 | > 10 | > 10 | > 10 | > 10
15 | COc1ccc2c(c1)oc1c(Nc3ccc(Br)cc3F)ncnc12 | > 10 | > 10 | > 10 | > 10 | > 10
16 | COc1ccc(Nc2ncnc3c2oc2cc(OC)ccc23)c(F)c1 | > 10 | > 10 | > 10 | > 10 | > 10
17 | COc1ccc2c(c1)oc1c(Nc3ccc(C#N)cc3)ncnc12 | > 10 | > 10 | > 10 | > 10 | > 10
18 | COc1ccc2c(c1)oc1c(Nc3cccc(C(F)(F)F)c3)ncnc12 | > 10 | > 10 | > 10 | > 10 | > 10
19 | COc1ccc2c(c1)oc1c(Nc3ccc(N(C)C)cc3)ncnc12 | > 10 | > 10 | > 10 | > 10 | > 10
20 | COc1ccc2c(c1)sc1c(N)ncnc12 | > 10 | > 10 | > 10 | > 10 | > 10
21 | COc1ccc2c(c1)sc1c(Nc3ccccc3)ncnc12 | > 10 | > 10 | > 10 | > 10 | > 10
22 | COc1ccc2c(c1)sc1c(Nc3ccc(C)cc3)ncnc12 | > 10 | > 10 | > 10 | > 10 | > 10
23 | COc1ccc2c(c1)sc1c(Nc3cccc(C)c3)ncnc12 | 6.1 | > 10 | > 10 | > 10 | > 10
24 | COc1ccc(Nc2ncnc3c2sc2cc(OC)ccc23)cc1 | 7.1 | > 10 | > 10 | > 10 | > 10
25 | COc1ccc2c(c1)sc1c(Nc3ccc(OC)c(OC)c3)ncnc12 | 0.93 | > 10 | > 10 | > 10 | 2.8
26 | COc1cc(Nc2ncnc3c2sc2cc(OC)ccc23)cc(OC)c1 | 3.9 | > 10 | > 10 | > 10 | 5.1
27 | COc1ccc2c(c1)sc1c(Nc3cc(OC)c(OC)c(OC)c3)ncnc12 | > 10 | > 10 | > 10 | > 10 | > 10

Row | Compound | IC50 [1] [µM] | IC50 [2] [µM] | IC50 [3] [µM] | IC50 [4] [µM] | IC50 [5] [µM]
28 | COc1ccc2c(c1)sc1c(Nc3ccc4c(c3)OCO4)ncnc12 | > 10 | > 10 | > 10 | > 10 | > 10
29 | COc1ccc2c(c1)sc1c(Nc3ccc4c(c3)OCCO4)ncnc12 | 0.5 | > 10 | > 10 | > 10 | 0.68
30 | COc1ccc2c(c1)sc1c(Nc3ccc(F)cc3)ncnc12 | > 10 | > 10 | > 10 | > 10 | > 10
31 | COc1ccc2c(c1)sc1c(Nc3ccc(Br)cc3)ncnc12 | > 10 | > 10 | > 10 | > 10 | > 10
32 | COc1ccc2c(c1)sc1c(Nc3ccc(Cl)cc3)ncnc12 | > 10 | > 10 | > 10 | > 10 | > 10
33 | COc1ccc2c(c1)sc1c(Nc3cccc(Cl)c3)ncnc12 | > 10 | > 10 | > 10 | > 10 | > 10
34 | COc1ccc2c(c1)sc1c(Nc3ccccc3Cl)ncnc12 | 0.61 | > 10 | > 10 | > 10 | 3.1
35 | COc1ccc2c(c1)sc1c(Nc3ccc(Cl)c(Cl)c3)ncnc12 | 2 | > 10 | > 10 | > 10 | 6.1
36 | COc1ccc2c(c1)sc1c(Nc3cc(Cl)cc(Cl)c3)ncnc12 | 8.1 | > 10 | > 10 | > 10 | > 10
37 | COc1ccc2c(c1)sc1c(Nc3ccc(Cl)cc3Cl)ncnc12 | 1.6 | > 10 | > 10 | > 10 | > 10
38 | COc1ccc2c(c1)sc1c(Nc3ccc(F)c(Cl)c3)ncnc12 | > 10 | > 10 | > 10 | > 10 | > 10
39 | COc1ccc2c(c1)sc1c(Nc3ccc(Cl)cc3F)ncnc12 | > 10 | > 10 | > 10 | > 10 | > 10
40 | COc1ccc2c(c1)sc1c(Nc3ccc(F)cc3F)ncnc12 | 0.93 | 3.9 | > 10 | > 10 | 1.6
41 | COc1ccc2c(c1)sc1c(Nc3ccc(Br)cc3F)ncnc12 | 0.71 | > 10 | > 10 | > 10 | 2.3
42 | COc1ccc(Nc2ncnc3c2sc2cc(OC)ccc23)c(F)c1 | 0.71 | > 10 | > 10 | > 10 | > 10
43 | COc1ccc2c(c1)sc1c(Nc3ccc(C#N)cc3)ncnc12 | 2.6 | > 10 | > 10 | > 10 | 6.8
44 | COc1ccc2c(c1)sc1c(Nc3cccc(C(F)(F)F)c3)ncnc12 | > 10 | > 10 | > 10 | > 10 | > 10
45 | COc1ccc2c(c1)oc1c(N)ncnc12 | 1.1 | 1.9 | > 10 | > 10 | 0.41
46 | COc1ccc2c(c1)oc1c(Nc3ccccc3)ncnc12 | > 10 | > 10 | > 10 | > 10 | > 10
47 | COc1ccc2c(c1)oc1c(Nc3ccc(C)cc3)ncnc12 | > 10 | > 10 | > 10 | > 10 | –
48 | COc1ccc2c(c1)oc1c(Nc3cccc(C)c3)ncnc12 | > 10 | > 10 | > 10 | > 10 | > 10
49 | COc1ccc(Nc2ncnc3c2oc2cc(OC)ccc23)cc1 | 0.88 | > 10 | > 10 | > 10 | 1.5
50 | COc1ccc2c(c1)oc1c(Nc3ccc(OC)c(OC)c3)ncnc12 | > 10 | > 10 | > 10 | > 10 | > 10
51 | COc1cc(Nc2ncnc3c2oc2cc(OC)ccc23)cc(OC)c1 | > 10 | > 10 | > 10 | > 10 | –
52 | COc1ccc2c(c1)oc1c(Nc3cc(OC)c(OC)c(OC)c3)ncnc12 | > 10 | > 10 | > 10 | > 10 | > 10
53 | COc1ccc2c(c1)[nH]c1c(C)nccc12 [HARMINE] | – | 1.5 | > 10 | – | –
